The target of data set [1] is T1, Gastrin/cholecystokinin type B receptor (Mus musculus) (UniProt P56481).
T1 sequence (whole entry): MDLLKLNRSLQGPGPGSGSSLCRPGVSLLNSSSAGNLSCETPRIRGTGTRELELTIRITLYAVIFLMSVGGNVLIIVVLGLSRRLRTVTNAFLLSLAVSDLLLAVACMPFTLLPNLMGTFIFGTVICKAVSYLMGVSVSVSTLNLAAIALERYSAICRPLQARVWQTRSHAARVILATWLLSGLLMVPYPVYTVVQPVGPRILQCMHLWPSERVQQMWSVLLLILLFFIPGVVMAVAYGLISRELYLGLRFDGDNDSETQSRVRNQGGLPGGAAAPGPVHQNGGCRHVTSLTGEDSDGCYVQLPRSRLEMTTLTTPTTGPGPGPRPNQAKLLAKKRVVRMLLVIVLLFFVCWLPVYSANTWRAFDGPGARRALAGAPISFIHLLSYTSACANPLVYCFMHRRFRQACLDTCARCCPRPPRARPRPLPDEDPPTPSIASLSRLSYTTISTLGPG
Description: Efficiency against CCKB/Gastrin receptor for stimulation of gastric acid secretion in lumen-perfused mouse stomach: activity measured as midpoint agonist concentration-effect curve parameter; inactive at the limits of solubility, u sually 10e-4M. In kind it is functional, tissue-based.

For data set [2], the target named is T1, Gastrin/cholecystokinin type B receptor (Mus musculus). Description: Maximum acid secretion obtained at 10e -5 M: values expressed as percentage of the maximum response to pentagastrin (n=4/6) in mouse stomach at CCKB/Gastrin receptor; inactive at the limits of solubility, usually 10e-4 M. In kind it is functional, tissue-based.
Data set [3] has as its target T2, Cholecystokinin receptor type A (Cavia porcellus) (UniProt Q63931).
T2 sequence (whole entry): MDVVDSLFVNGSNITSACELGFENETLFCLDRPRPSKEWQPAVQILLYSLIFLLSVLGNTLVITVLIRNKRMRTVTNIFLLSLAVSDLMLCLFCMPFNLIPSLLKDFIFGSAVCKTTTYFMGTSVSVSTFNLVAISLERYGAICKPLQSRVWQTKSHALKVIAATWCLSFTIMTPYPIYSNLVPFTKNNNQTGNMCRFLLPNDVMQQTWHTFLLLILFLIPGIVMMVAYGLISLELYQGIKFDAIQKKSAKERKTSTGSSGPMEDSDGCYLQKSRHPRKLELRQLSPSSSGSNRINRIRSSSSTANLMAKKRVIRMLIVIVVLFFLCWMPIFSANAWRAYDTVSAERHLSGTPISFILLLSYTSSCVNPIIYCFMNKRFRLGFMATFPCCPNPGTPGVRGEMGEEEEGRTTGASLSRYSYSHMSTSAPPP
The experiment in a line: Affinity at Cholecystokinin type A receptor in guinea pig gall bladder; inactive at the limits of solubility, usually 10e-4 M. In kind it is tissue-based.

For data set [4], the target named is T2, Cholecystokinin receptor type A (Cavia porcellus). The experiment in a line: Binding affinity for Cholecystokinin type A receptor in Guinea-Pig gall bladder. In kind it is tissue-based.
The nature of data set [5]: Compound was evaluated for partition coefficient using chloroform/buffer at pH 7.4 and 254 nm. It counts as physicochemical. The conditions noted are these: octanol/water.
Data set [6] can be described thus: Compound was evaluated for partition coefficient using chloroform/buffer at pH 7.4 and 280 nm. It counts as physicochemical. The conditions noted are these: octanol/water.
Data set [7] has as its target T2, Cholecystokinin receptor type A (Cavia porcellus). Description: Compound was evaluated for its affinity at Cholecystokinin type A receptor in Guinea-Pig gall bladder. In kind it is tissue-based.
For data set [8], the target named is T1, Gastrin/cholecystokinin type B receptor (Mus musculus). Description: Efficiency against CCKB/Gastrin receptor for stimulation of gastric acid secretion in lumen-perfused mouse stomach: activity measured as midpoint agonist concentration-effect curve parameter. In kind it is functional, tissue-based.
Data set [9] has the same target. Description: Maximum acid secretion obtained at 10e -5 M: values expressed as percentage of the maximum response to pentagastrin (n=4/6) in mouse stomach at CCKB/Gastrin receptor. It counts as functional, tissue-based.
The target in data set [10] is T3, Cholecystokinin receptor type A (Cavia porcellus, UniProt Q63931).
T3 sequence (Q63931 whole entry): T2 sequence (whole entry)
The experiment in a line: In vitro affinity against Cholecystokinin type A receptor in guinea pig pancreatic cell.

Data set [11] concerns the target T4, Gastrin/cholecystokinin type B receptor (Mus musculus, UniProt P56481).
T4 sequence (P56481 whole entry): T1 sequence (whole entry)
Description: Compound was evaluated for its affinity against Cholecystokinin type B receptor in mouse cerebral cortex. It counts as tissue-based.

Data set [12] deals with T2, Cholecystokinin receptor type A (Cavia porcellus). Description: Compound was evaluated for its affinity at Cholecystokinin type A receptor in Guinea-Pig gallbladder.
Data set [13] has the same target. The experiment in a line: Compound was evaluated for its affinity at Cholecystokinin type A receptor in Guinea-Pig gall bladder; inactive at 10e-4 M. In kind it is tissue-based.
For data set [14] the target is unchanged. Description: Compound was evaluated for its affinity at Cholecystokinin type A receptor in Guinea-Pig gallbladder; inactive at the limits of solubility, usually 10e-4 M.

Each structure is given as a SMILES string. Active and inactive are the calls of the source. The calls are words filed in the database; no cut-off is given here. Residues, ends and D or L forms follow the SMILES beside them. *: point of attachment. Boc = CC(C)(C)OC(=O)*

Experimental findings from ChEMBL document CHEMBL1150521, “2-NAP: a selective, hydrophilic, non-peptide CCKA - receptor antagonist derived from the cholecystokinin C-terminal dipeptide” (Bioorg Med Chem Lett, 1993) are described below.

Consider `O=C(O)C[C@H](NS(=O)(=O)c1cccc2ccccc12)C(=O)NCCc1ccccc1`, for which the “p[A50]” value in data set [1] is “inactive”. In data set [2], the Max response entry is “inactive”. Further, the pKB result in data set [3] was “inactive”.

In turn, `O=C(O)C[C@H](NS(=O)(=O)Cc1ccc2ccccc2c1)C(=O)NCCc1ccccc1` gave a negative logarithm of the KB (pKB) in data set [4] of 5.4.

As to `CN1C(=O)[C@@H](NC(=O)c2cc3ccccc3[nH]2)N=C(c2ccccc2)c2ccccc21` [DEVAZEPIDE], the logD was 4.16 in data set [5] and 4.1 in [6].

Consider `O=C(O)C[C@H](NS(=O)(=O)c1ccc2ccccc2c1)C(=O)NCCCc1ccccc1`, for which the pKB in data set [4] was 7.

For the compound `O=C(O)C[C@H](NS(=O)(=O)c1ccc(Cl)c(Cl)c1)C(=O)NCCc1ccccc1`, the pKB in data set [4] is 5.8.

`COc1ccc2cc(S(=O)(=O)N[C@@H](CC(=O)O)C(=O)NCCc3ccccc3)ccc2c1` came in with a pKB in data set [4] of 6.6.

Turning to `O=C(O)C[C@H](NS(=O)(=O)Cc1ccccc1)C(=O)NCCc1ccccc1`, the pKB result in data set [3] is “inactive”.

Consider `COc1ccc2cc(S(=O)(=O)N[C@@H](CC(=O)O)C(=O)NCCc3ccccc3)ccc2c1Cl`, for which the negative-log KB (pKB) in [4] came to 6.5.

Compound `CC(C)C[C@H](NC(=O)[C@H](Cc1c[nH]c2ccccc12)NC(=O)OC(C)(C)C)C(=O)N[C@@H](CC(=O)O)C(=O)N[C@@H](Cc1ccccc1)C(N)=O` (Boc-WLDF-NH2) had a pKB in data set [7] of 5.1. In data set [8], the p[A50] is 8.6. Moreover, the Max response in data set [9] turned out to be 100%.

`O=C(O)CC[C@@H](NS(=O)(=O)c1ccc2ccccc2c1)C(=O)NCCc1ccccc1`: in [3], the pKB result is “inactive”.

As to `NC(=O)[C@H](Cc1ccccc1)NC(=O)[C@H](CC(=O)O)NC(=O)c1ccc2ccccc2c1`, the p[A50] in data set [8] amounted to 5. In data set [3], the pKB entry is “inactive”. The compound also came in with a Max response in data set [9] of 100%.

As for `COc1ccc(S(=O)(=O)N[C@@H](CC(=O)O)C(=O)NCCc2ccccc2)cc1`, in [3], the pKB entry was “inactive”.

With `O=C(O)C[C@H](NS(=O)(=O)c1ccc2ccccc2c1)C(=O)NCCc1ccc(F)cc1`, in data set [4], the pKB worked out at 6.6.

Compound `COc1ccc(CCNC(=O)[C@H](CC(=O)O)NS(=O)(=O)c2ccc3ccccc3c2)cc1` came in with a pKB in data set [4] of 6.

In the case of `NC(=O)[C@H](Cc1ccccc1)NC(=O)[C@H](CC(=O)O)NS(=O)(=O)c1ccc2ccccc2c1`, the p[A50] in [8] is 5.6. The pKB result in data set [3] was “inactive”. The Max response in data set [9] worked out at 96%.

Turning to `O=C(O)C[C@H](NS(=O)(=O)c1ccc2ccccc2c1)C(=O)NCCc1ccccc1`, the Ki is 355 nM in data set [10] and 69.2 µM in data set [11]. Besides, the log distribution coefficient (logD) in data set [5] and in [6] was -0.91 in each case. Also, the “p[A50]” value in data set [1] is “inactive”. The Max response entry in [2] was “inactive”. In [3], this compound had a pKB of 6.5.

In data set [8], `NC(=O)[C@H](Cc1ccccc1)NC(=O)[C@H](CC(=O)O)NS(=O)(=O)c1cccc2ccccc12` had a p[A50] of 4.6. Also, the pKB result in [3] is “inactive”. The compound also yielded a Max response in data set [9] of 30%.

For `O=C(O)C[C@H](NC(=O)c1ccc2ccccc2c1)C(=O)NCCc1ccccc1`, the pKB in [12] was 5.6. For the same compound, the “p[A50]” value in [1] is “inactive”. Moreover, the Max response result in data set [2] was “inactive”.

As to `O=C(O)CC[C@H](NS(=O)(=O)c1ccc2ccccc2c1)C(=O)NCCc1ccccc1`, the pKB in [4] came out at 6.1.

`NS(=O)(=O)c1ccc(CCNC(=O)[C@H](CC(=O)O)NS(=O)(=O)c2ccc3ccccc3c2)cc1` gave a pKB in data set [4] of 5.

Consider `O=C(O)C[C@H](NS(=O)(=O)CCCc1ccccc1)C(=O)NCCc1ccccc1`, for which the pKB result in [3] is “inactive”.

Turning to `Cc1ccc(S(=O)(=O)N[C@@H](CC(=O)O)C(=O)NCCc2ccccc2)cc1`, the pKB result in [3] was “inactive”.

`O=C(O)C[C@H](NS(=O)(=O)CCc1ccccc1)C(=O)NCCc1ccccc1` had a pKB in [4] of 5.5.

Regarding `CC(C)(C)OC(=O)N[C@@H](CC(=O)O)C(=O)N[C@@H](Cc1ccccc1)C(N)=O` (Boc-Asp-Phe-NH2), the pKB result in [13] is “inactive”. In [8], this compound yielded a p[A50] of 5.7. In [9], this compound gave a Max response of 100%.

`CC(C)(C)OC(=O)N[C@@H](CC(=O)O)C(=O)NCCc1ccccc1`: the pKB result in data set [14] is “inactive”. Also, the “p[A50]” value in [1] is “inactive”. Moreover, the Max response entry in [2] is “inactive”.

For the compound `O=C(O)C[C@@H](NS(=O)(=O)c1ccc2ccccc2c1)C(=O)NCCc1ccccc1`, the pKB in data set [4] was determined as 5.9.

Regarding `O=C(O)C[C@H](NS(=O)(=O)/C=C/c1ccccc1)C(=O)NCCc1ccccc1`, the pKB in [4] amounted to 6.3.

For `COc1cc2cc(S(=O)(=O)N[C@@H](CC(=O)O)C(=O)NCCc3ccccc3)ccc2c(Cl)c1OC`, the negative-log KB (pKB) in [4] is 6.2.

With `O=C(O)C[C@H](NS(=O)(=O)c1ccccc1)C(=O)NCCc1ccccc1`, the pKB entry in data set [3] is “inactive”.

What is called pKB is the KB on a negative log10 scale, so that one unit is a factor of ten. What is called logD is the decadic logarithm of the distribution of all forms, ionised or not, between an organic phase and buffer at a given pH. A high value points to a more lipophilic compound. Usually Ki stands for a measure of affinity in units of concentration, obtained from inhibition or displacement.
